Results on nine compounds are retold here after patent publication US20250215014A1, “KINASE INHIBITORS, PREPARATION METHODS AND USES THEREOF” (InventisBio Co., Ltd., priority 2022, published 2025).

As a reminder, the EC50 is the concentration that produces a half-maximal response. Low readings indicate a more potent agent, high ones a less potent agent. What is called IC50 is the midpoint of a concentration-inhibition curve.

One assay has as its system PBMC. As to the kind of experiment: Human PBMC IL-2 Assay. Type of assay: cell-based. The settings on record: anti-CD3/CD28 antibody, IL-2 level. How it is done: PBMC (frozen) obtained from health donor were thawed in RPMI-1640 medium with 10% o FBS, incubated for 4 h at 37° C. In a 96-well plate, 200,000 PBMC cells in 160 uL were added to each assay well. Ten microliter compound solution (10 uM to 0.6 nM, 8 points with 4-fold dilution) were added to cells in each well and incubated for 60 minutes at 37° C. Then 30 uL anti-CD3/CD28 antibody (Catalog #10991, Stemcell) were added to cells and incubated overnight at 37° C. After the incubation, 16 uL supernatants were transferred into a new 384-well white assay plate for cytokine analysis. IL-2 level was quantified using Human IL-2 kit (Catalog #62HIL02PEG, Cisbio) as described in the manufacturer manual.
Activation at […] activity (EC50) was calculated with the equation: […]
(§1) X is log of compound concentration, Y is the IL-2 concentration, increasing as X increases.

In the next assay the target is DGKa (Homo sapiens (Human), UniProt P23743). Nature of the assay: DGK ADP-Glo Kinase Assay (DGKa). Type of assay: biochemical. The settings on record: 10 nM DGKa, 15 uM ATP. The protocol:
(§2) Luminescence was recorded using an Tecan SPARK microplate reader.
A general note: In ADP-Glo the light output rises with the ADP produced.

A further assay deals with DGKz (Homo sapiens (Human), UniProt Q13574). As to the kind of experiment: DGK ADP-Glo Kinase Assay (DGKz). The settings on record: 5 nM DGKz, 15 uM ATP. In kind it is biochemical. The protocol:
as §2

The next assay relates to Jurkat cells. As to the kind of experiment: Jurkat IL-2 Assay. In kind it is cell-based. The settings on record: Homo sapiens, anti-CD3/CD28 antibody, IL-2 level. How it is done: Jurkat cells (ATCC) were cultured in RPMI-1640 medium supplemented with 10% FBS. In a 96-well plate, 250,000 cells in 130 uL were added to each assay well. Ten microliter compound solution (5 uM to 2.3 nM, 8 points with 3-fold dilution) were added to cells in each well and incubated for 60 minutes at 37° C. Then 10 uL anti-CD3/CD28 antibody (Catalog #10991, Stemcell) were added and incubated overnight at 37° C. After the incubation, 16 uL supernatants were transferred into a new 384-well white assay plate for cytokine analysis. IL-2 was quantified using Human IL-2 kit (Catalog #62HIL02PEG, Cisbio) as described in the manufacturer manual.
as §1

The structures appear in SMILES notation.

Sequence of DGKz (Q13574 whole entry): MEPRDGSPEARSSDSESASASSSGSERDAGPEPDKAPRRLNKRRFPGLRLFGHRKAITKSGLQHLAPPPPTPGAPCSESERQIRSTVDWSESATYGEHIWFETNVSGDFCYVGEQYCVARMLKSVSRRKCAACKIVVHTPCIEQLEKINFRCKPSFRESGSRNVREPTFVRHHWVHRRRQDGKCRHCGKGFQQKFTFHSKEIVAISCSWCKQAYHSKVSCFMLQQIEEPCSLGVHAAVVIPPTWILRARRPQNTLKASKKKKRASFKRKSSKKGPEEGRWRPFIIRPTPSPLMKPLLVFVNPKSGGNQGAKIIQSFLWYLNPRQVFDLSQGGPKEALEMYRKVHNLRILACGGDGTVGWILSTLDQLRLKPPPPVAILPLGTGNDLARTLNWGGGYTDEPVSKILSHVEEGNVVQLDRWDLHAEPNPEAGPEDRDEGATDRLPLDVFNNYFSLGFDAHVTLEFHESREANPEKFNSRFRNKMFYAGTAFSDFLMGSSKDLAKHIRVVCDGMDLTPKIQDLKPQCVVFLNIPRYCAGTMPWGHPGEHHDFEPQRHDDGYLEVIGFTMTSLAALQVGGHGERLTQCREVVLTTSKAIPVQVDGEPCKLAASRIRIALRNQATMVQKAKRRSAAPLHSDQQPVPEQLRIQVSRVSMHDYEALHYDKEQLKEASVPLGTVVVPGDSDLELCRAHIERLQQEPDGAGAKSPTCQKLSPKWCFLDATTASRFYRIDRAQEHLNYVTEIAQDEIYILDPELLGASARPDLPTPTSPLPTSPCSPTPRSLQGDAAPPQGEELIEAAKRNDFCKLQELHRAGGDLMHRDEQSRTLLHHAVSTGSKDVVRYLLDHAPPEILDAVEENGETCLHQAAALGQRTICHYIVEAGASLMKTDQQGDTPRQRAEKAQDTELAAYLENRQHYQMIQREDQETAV
Sequence of DGKa (P23743 whole entry): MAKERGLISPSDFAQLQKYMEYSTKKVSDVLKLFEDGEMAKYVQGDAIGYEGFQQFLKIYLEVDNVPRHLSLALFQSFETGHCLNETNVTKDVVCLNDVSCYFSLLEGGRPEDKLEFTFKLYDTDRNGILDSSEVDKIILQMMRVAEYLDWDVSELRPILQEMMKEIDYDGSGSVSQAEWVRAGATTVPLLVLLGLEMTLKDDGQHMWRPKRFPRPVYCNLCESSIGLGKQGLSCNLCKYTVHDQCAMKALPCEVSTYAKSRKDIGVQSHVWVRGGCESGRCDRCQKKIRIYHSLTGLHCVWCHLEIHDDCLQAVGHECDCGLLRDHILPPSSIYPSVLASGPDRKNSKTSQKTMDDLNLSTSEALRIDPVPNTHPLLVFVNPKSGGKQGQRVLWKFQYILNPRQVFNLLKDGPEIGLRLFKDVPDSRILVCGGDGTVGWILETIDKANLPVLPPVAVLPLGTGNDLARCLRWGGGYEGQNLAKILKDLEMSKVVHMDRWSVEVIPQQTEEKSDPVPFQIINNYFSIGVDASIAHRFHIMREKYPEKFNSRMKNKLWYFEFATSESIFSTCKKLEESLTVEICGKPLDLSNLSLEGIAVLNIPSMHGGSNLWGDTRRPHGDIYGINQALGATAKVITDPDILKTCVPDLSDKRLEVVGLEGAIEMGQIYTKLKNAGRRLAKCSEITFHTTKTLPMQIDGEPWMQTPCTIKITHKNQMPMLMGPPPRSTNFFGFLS

For the compound `CC[C@@H]1C[C@@H](Oc2ccc(OC(F)(F)F)cc2)CCN1c1nc(=O)n(C)c2ccc(C#N)nc12` (stereo in doubt) [Compound 19], the EC50 in the assay with PBMC lay in the range of 500 to 1000 nM. Also, the IC50 at DGKa is greater than 1000 nM; on DGKz, less than 100 nM.

For the compound `Cn1c(=O)nc(N2CCC(Oc3ccc(OC(F)(F)F)cc3)CC2)c2nc(C#N)ccc21` [Compound 5], the EC50 in the assay with PBMC lay in the range of 500 to 1000 nM. The half-inhibitory concentration (IC50) against DGKa and at DGKz was 100 to 1000 nM throughout.

In turn, `Cn1c(=O)c(C(N)=O)c(N2CCC3(CCN(c4ccc(OC(F)(F)F)cc4)C3)CC2)c2nc(C#N)ccc21` [Compound 6] registered an EC50 in the assay with PBMC greater than 1000 nM. Also, the IC50 on DGKa and against DGKz was 100 to 1000 nM throughout.

Turning to `Cc1ccc2oc(C3(C)CCN(c4c(C#N)c(=O)n(C)c5ccc(C#N)nc45)CC3)nc2c1` [Compound 7], the EC50 in the assay on PBMC is less than 500 nM.

Compound `CC[C@H]1C[C@@H](Oc2ccc(OC(F)(F)F)cc2)CCN1c1nc(=O)n(C)c2ccc(C#N)nc12` [Compound 17] yielded an EC50 in the assay with PBMC of less than 500 nM. Further, the half-inhibitory concentration (IC50) against DGKa is less than 100 nM; at DGKz, 100 to 1000 nM.

In the assay on Jurkat cells, `Cn1c(=O)nc(N2CCC(Oc3ccc(OC(F)(F)F)cc3)CC2)c2c1ccc1nncn12` [Compound 21] returned an EC50 greater than 1000 nM.

In the case of `CC[C@H]1CN([C@@H]2CCCCc3cc(C(F)(F)F)ccc32)[C@H](CC)CN1c1nc(=O)n(C)c2ccc(C#N)nc12` [Compound 45], in the assay on Jurkat cells, the EC50 was 500 to 1000 nM. Also, the half-inhibitory concentration (IC50) on DGKa is 100 to 1000 nM; on DGKz, less than 100 nM.

As to `Cn1c(=O)nc(N2CCC3(CC2)CC(c2ccccc2C(F)(F)F)=NO3)c2nc(C#N)ccc21` [Compound 48], the EC50 in the assay with PBMC was greater than 1000 nM.

On to `C[C@H]1CC2(CCN1c1nc(=O)n(C)c3ccc(C#N)nc13)CC(c1ccc(OC(F)(F)F)cc1)=NO2` (stereo partly shown) [Compound 50], for which the 50% effective concentration (EC50) in the assay on Jurkat cells is less than 500 nM.
